Molecules are shown by their SMILES.

Data set [1] relates to S. lividans pCAO200SU1#12. Description: Sulfonylurea metabolism by washed cell suspension (Examples 6-9). The format is in vitro ADME, Streptomyces lividans. The method, then: (§1) Herbicides and their metabolites are measured by HPLC as described by Romesser et al., BBRC 140: 650-659 (1986), herein incorporated by reference, except that 0.1% H3 PO4 is used in both solvents. Chromatographic identity and quantitation of the herbicides and their resulting metabolites is determined by comparing them chromatographically with authentic standard compounds. Identity of the resulting metabolites is also confirmed by UV spectroscopy. […]
(§2) S. lividans transformed respectively with pCAO200SU1-FeS-B#9, pCAO200SU#112and pCAO200 were cultured for 36 hours in 400 ml of YEME broth at 30° C. S. griseolus ATCC 11796 was similarly cultured in 400 ml of sporulation broth. Six hours before harvesting the cells, 150 ml of fresh YEME broth was added to the S. lividans cells, and the S. griseolus cells were split into two 200 ml cultures with 100 ml of fresh sporulation broth added to each. 10001 (36 mg) was added to one of the two S. griseolus cultures to induce cytochrome P450SU1. The cells were prepared as described above in Example 5 and the concentrations of the sulfonylurea compound 10006 and its metabolites 10007, 10008 or 10009 were determined.

Data set [2] concerns S. lividans pCAO200. The description is as above. The data set is classed as in vitro ADME, Streptomyces lividans. Conditions: substrate 10006. Here is the method: as §1, §2
Data set [3] relates to S. lividans pCAO200SU1-FeS-B#9. The description is as above. The data set is classed as in vitro ADME, Streptomyces lividans. The method, then: Herbicides and their metabolites are measured by HPLC as described by Romesser et al., BBRC 140: 650-659 (1986), herein incorporated by reference, except that 0.1% H3 PO4 is used in both solvents. Chromatographic identity and quantitation of the herbicides and their resulting metabolites is determined by comparing them chromatographically with authentic standard compounds. Identity of the resulting metabolites is also confirmed by UV spectroscopy.
A 100 ml culture of S. griseolus ATCC 11796 in sporulation broth and a 50 ml culture of S. lividans transformed with pCAO400 in YEME broth were prepared and incubated for 24 hours as described. At that time, the S. griseolus culture was split into two 50 ml aliquots into two separate flasks and 25 ml of fresh sporulation broth was added to each and 9 mg of […] was added to one of these cultures to induce cytochrome P450SU1 expression. Fresh YEME broth (25 ml) was added to the S. lividans culture. After an additional 6 hours growth at 30° C., the cells in each culture were harvested as described above, washed twice with MOPS (50 mM, pH 7.2) and recentrifuged. The cell pellets were resuspended in four cell volumes of MOPS (50 mM, pH 7.2) containing 0.2% glucose and about 100 μg/ml of 10004. These cell suspensions were incubated at 30° C. with shaking and aliqouts were taken at 2 and 5.5 hours. The supernatant of each aliquot was analyzed by HPLC and the concentrations of the sulfonylurea compound 10004 and its metabolite 10005 were determined.
S. lividans transformed respectively with pCAO200SU1-FeS-B#9, pCAO200SU#112and pCAO200 were cultured for 36 hours in 400 ml of YEME broth at 30° C. S. griseolus ATCC 11796 was similarly cultured in 400 ml of sporulation broth. Six hours before harvesting the cells, 150 ml of fresh YEME broth was added to the S. lividans cells, and the S. griseolus cells were split into two 200 ml cultures with 100 ml of fresh sporulation broth added to each. 10001 (36 mg) was added to one of the two S. griseolus cultures to induce cytochrome P450SU1. […]

The test system of data set [4] is S. lividans pCAO200SU2-FeS-A#11. Description: Sulfonylurea metabolism by washed cell suspension (Examples 11-12). The data set is classed as in vitro ADME, Streptomyces lividans. To be noted: substrate 10010.
In data set [5] the test system is S. lividans pCAO200. Description: Sulfonylurea metabolism by washed cell suspension (Examples 6-9). The data set is classed as in vitro ADME, Streptomyces lividans. To be noted: substrate 10010.
The subject of data set [6] is S. griseolus PH2003 pCS325. Nature of the data set: Percent conversion of herbicides by cultures (Example 16). The format is in vitro ADME, Streptomyces griseolus. Conditions: for Percent Conversion: 3.0 mg herbicide in 25 ml broth, 24 hours; for metabolism by bacteria containing constitutively expressed P450SU2: summary of Table 13. The method, then:
(§3) Separate cultures (50 ml) inoculated with S. lividans C37, S. lividans transformed with pCAO200SU1-FeS-B#9, S. griseolus ATCC11796, S. griseolus PH2003 transformed with pIJ425, or S. ariseolus PH2003 transformed with pCS325 were cultured in sporulation broth for 18 hours at 30° C. with shaking. Each culture was then resuspended in 25 ml fresh sporulation broth and 3.0 mg herbicide added. In the case of cultures of S. griseolus ATCC11796, a second culture containing herbicide and 3.0 mg 10001 was also prepared. Each culture was reincubated for 24 hours, then an aliquot of the medium was withdrawn and analyzed by HPLC. The percent conversion of herbicide was determined.

Data set [7] concerns S. griseolus PH2003 pIJ425. The description is as above. The format is in vitro ADME, Streptomyces griseolus. To be noted: 3.0 mg herbicide in 25 ml broth; 24 hours. Here is the method: as §3
The subject of data set [8] is S. lividans pCAO200SU1-FeS-B#9. The description is as above. To be noted: 3.0 mg herbicide in 25 ml broth; 24 hours. The format is in vitro ADME, Streptomyces lividans. Here is the method:
as §3

The next data set relates to S. griseolus ATCC11796. Description: Metabolism of 10015 analogs to 10014 (Example 17). The data set is classed as in vitro ADME, Streptomyces griseolus. Here is the method:
Cultures of S. griseolus ATCC11796 were cultivated in sporulation-broth (50ml) at 30° C. with shaking for 17 hours. Each culture was then resuspended in 25 ml fresh sporulation broth, 3.0 mg sulfonylurea was added, and the culture reincubated for 4 days. Aliquots of the medium were then analyzed by HPLC. Formation of 10014 was measured based on similarity of retention time and UV spectrum of the test metabolite to that formed by metabolism of 10015.

The test system of data set [9] is S. lividans pCAO200SU1-FeS-B#9. Nature of the data set: Percent conversion of non-sulfonylurea herbicides (Example 29). Conditions: for Percent Conversion: 3.0 mg herbicide in 25 ml broth, 18 hours; for metabolism by bacteria containing constitutively expressed P450SU1: summary of Table 29. The data set is classed as in vitro ADME, Streptomyces lividans. The method, then:
This experiment was performed as in Example 17 with the following changes. Separate cultures (50 ml) inoculated with S. lividans C37, S. lividans transformed with pCAO200SU1-FeS-B#9, or S. griseolus ATCC11796 were cultured in sporulation broth for 18 hours at 30° C. with shaking. Each culture was then resuspended in 25 ml fresh sporulation broth and 3.0 mg herbicide added. Each culture was reincubated for 18 hours, then an aliquot of the medium was withdrawn and analyzed by HPLC. The percent conversion of herbicide was determined.

Take `COC(=O)c1ccccc1S(=O)(=O)NC(=O)Nc1nc(C)nc(O)n1` [compound 10007, N-[(4-hydroxy-6-methyl-1,3,5-triazinyl)aminocarbonyl]-2-methoxycarbonylbenzenesulfonamide]: the concentration in supernatant in [1] (substrate 10006, 2 h) is 2 µM; in data set [1] (substrate 10006, 4 h), 2 µM; in data set [1] (substrate 10006, 6 h) it was 2 µM; with S. lividans pCAO200 [2] (2 h), 4 µM; with S. lividans pCAO200 [2] (4 h), 1 µM; with S. lividans pCAO200 [2] (6 h) it was 1 µM. Further, the concentration in supernatant in data set [3] (substrate 10006, 2 h) was 12 µM; in [3] (substrate 10006, 4 h), 21 µM; in data set [3] (substrate 10006, 6 h) it was 30 µM.
`COc1nc(C)nc(=NC(=O)NS(=O)(=O)c2ccccc2C(=O)O)[nH]1` [compound 10008, N-[(4-methoxy-6-methyl-1,3,5-triazinyl)aminocarbonyl]-2-carboxybenzenesulfonamide]: the concentration in supernatant came to 1 µM in data set [1] (substrate 10006, 2 h); 1 µM in data set [1] (substrate 10006, 4 h); 1 µM in [1] (substrate 10006, 6 h); 0 µM in the data set with S. lividans pCAO200 [2] (2 h); 0 µM in the data set with S. lividans pCAO200 [2] (4 h); 0 µM in the data set with S. lividans pCAO200 [2] (6 h). The concentration in supernatant came out at 18 µM in data set [3] (substrate 10006, 2 h); 38 µM in [3] (substrate 10006, 4 h); 55 µM in [3] (substrate 10006, 6 h).
On to `COC(=O)c1ccccc1S(=O)(=O)NC(=O)Nc1nc(CO)nc(OC)n1` [compound 10009, N-[(4-methoxy-6-hydroxymethyl-1,3,5-triazin-yl)aminocarbony1]-2-methoxycarbonylbenzenesulfonamide], for which the concentration in supernatant is 0 µM in [1] (substrate 10006, 2 h); 1 µM in data set [1] (substrate 10006, 4 h); 1 µM in data set [1] (substrate 10006, 6 h); 0 µM with S. lividans pCAO200 [2] (2 h); 0 µM with S. lividans pCAO200 [2] (4 h); 0 µM with S. lividans pCAO200 [2] (6 h). The concentration in supernatant turned out to be 15 µM in [3] (substrate 10006, 2 h); 33 µM in data set [3] (substrate 10006, 4 h); 49 µM in data set [3] (substrate 10006, 6 h).
With `COC(=O)c1ccccc1S(=O)(=O)NC(=O)Nc1nc(C)cc(CO)n1` [compound 10011, N-[(4-hydroxymethyl-6-methyl-pyrimidin-2-yl)aminocarbonyl]-2-methoxycarbonylbenzenesulfonamide], the concentration in supernatant in data set [1] (substrate 10010, 2 h) is 4 µM; in [1] (substrate 10010, 4 h) it was 7 µM; in data set [1] (substrate 10010, 6 h) it was 11 µM; in data set [3] (substrate 10010, 2 h), 34 µM; in [3] (substrate 10010, 4 h) it was 37 µM; in [3] (substrate 10010, 6 h), 27 µM. The concentration in supernatant came out at 1 µM in data set [4] (2 h); 5 µM in [4] (4 h); 14 µM in data set [4] (6 h); 1 µM with S. lividans pCAO200 [5] (2 h); 2 µM in the data set with S. lividans pCAO200 [5] (4 h); 3 µM in the data set on S. lividans pCAO200 [5] (6 h).
Regarding `COC(=O)C1Cc2c(c(Cl)cc(F)c2N2C(=O)C3=C(CCCC3)C2=O)O1` (stereo not shown) [compound 10020, 7-chloro-5-fluoro-4-(2,3,4,5,6,7-hexahydro-1,3-dioxo-1H-isoindol-2-yl)-2,3-dihydro-2-benzofurancarboxylic acid, methyl ester], the “Percent Conversion” value was found to be 89% in [6], 7% in data set [7] and 19% in [8]. The “metabolism by bacteria containing constitutively expressed P450SU2” value in data set [6] is given as “metabolized”.
With `C[n+]1cccnc1[O-]` [compound 10022, 1-methyl-2(1H)-pyrimidinone], the “Percent Conversion” value in data set [6] was 96%; in data set [7], 0%; in data set [8], 42%. Moreover, the “metabolism by bacteria containing constitutively expressed P450SU2” value in data set [6] is “metabolized”.
`CCN1Cc2cccc(S(=O)(=O)NC(=O)Nc3nc(OC)cc(OC)n3)c2S1(=O)=O` [compound 10024, N-[(4,6-dimethoxypyrimidin-2-yl)aminocarbonyl]-2-ethyl-2,3-dihydro-1,2-benzisothiazole-7-sulfonamide-1,1-dioxide]: the “metabolism by P450SU1 to phytotoxic 10014” value with S. griseolus ATCC11796 is “metabolized”.
Consider `COc1cc(OC)nc(NC(=O)NS(=O)(=O)c2cccc3c2S(=O)(=O)N(Cc2ccccc2)C3)n1` [compound 10025, N-[(4,6-dimethoxypyrimidin-2-yl)aminocarbonyl]2,3-dihydro-2-(phenylmethyl)-1,2-benzisothiazole-7-sulfonamide-1,1-dioxide], for which, in the data set with S. griseolus ATCC11796, the “metabolism by P450SU1 to phytotoxic 10014” value is listed as “metabolized”.
Still for that read-out and setting: the result for `COc1cc(OC)nc(NC(=O)NS(=O)(=O)c2cccc3c2S(=O)(=O)N(CCF)C3)n1` [compound 10026, N-[(4,6-dimethoxypyrimidin-2-yl)aminocarbonyl]-2-(2-fluoroethy1)-2,3-dihydro-1,2-benzisothiazole-7-sul fonamide-1,1-dioxide] reads “metabolized”; that for `CCCN1Cc2cccc(S(=O)(=O)NC(=O)Nc3nc(OC)cc(OC)n3)c2S1(=O)=O` [compound 10027, N-[(4,6-dimethoxypyrimidin-2-yl)aminocarbonyl]-2,3-dihydro-2-propyl-1,2-benzisothiazole-7-sulfonamide-1,1-dioxide], “metabolized”.
With `Cc1cc(C)n2nc(S(=O)(=O)Nc3c(C)cccc3Cl)nc2n1` [compound 10033, N-(2-chloro-6-methylphenyl)-5,7-dimethyl-1,2,4-triazolo-1,5A-pyrimidine-2-sulfonamide], in data set [9], the “Percent Conversion” value is listed as 88% and the “metabolism by bacteria containing constitutively expressed P450SU1” value is on record as “metabolized”.
As to `Cc1cc(C)nc(S(=O)(=O)Nc2c(Cl)cccc2Cl)n1` [compound 10036, N-(2,6-dichlorophenyl)-4,6-dimethyl-2-pyrimidinesulfonamide], in data set [9], the “Percent Conversion” value is reported as 100% and the “metabolism by bacteria containing constitutively expressed P450SU1” value is “metabolized”.

Source of the values: patent publication US5349127A, “Expression of herbicide metabolizing cytochromes P450” (priority 1992, dated 1994).
